One molecule from patent publication US9605008B2, “Benzyl-1H-pyrazolo[3,4-b]pyridines and use thereof” (BAYER PHARMA AKTIENGESELLSCHAFT, priority 2013, dated 2017) can be followed below.

What is called IC50 is the concentration that gives 50% inhibition.

The target of experiment [1] is human phosphodiesterase 5 (PDE 5) (Homo sapiens (Human), UniProt O76074). The experiment is described as follows: Inhibition of human phosphodiesterase 5 (PDE 5). It counts as biochemical. Conditions: PDE 5 preparation from human platelets; [8-3H] cGMP substrate, SPA; in some cases means of individual determinations. Here is the method: B-3. Inhibition of Human Phosphodiesterase 5 (PDE 5)
PDE 5 preparations are obtained from human platelets by disruption (Microfluidizer®, 800 bar, 3 passes), followed by centrifugation (75000 g, 60 min, 4° C.) and ion exchange chromatography of the supernatant on a Mono Q 10/10 column (linear sodium chloride gradient, elution with a 0.2-0.3M solution of sodium chloride in buffer (20 mM Hepes pH 7.2, 2 mM magnesium chloride). Fractions having PDE 5 activity are combined (PDE 5 preparation) and stored at −80° C.
To determine their in vitro action on human PDE 5, the test substances are dissolved in 100% DMSO and serially diluted. Typically, dilution series (1:3) from 200 μM to 0.091 μM are prepared (resulting final concentrations in the test: 4 μM to 0.0018 μM). In each case 2 μl of the diluted substance solutions are placed into the wells of microtitre plates (Isoplate-96/200W; Perkin Elmer). Subsequently, 50 μl of a dilution of the above-described PDE 5 preparation are added. The dilution of the PDE 5 preparation is chosen such that during the later incubation less than 70% of the substrate are converted (typical dilution: 1:100; dilution buffer: 50 mM tris/hydrochloric acid pH 7.5, 8.3 mM magnesium chloride, 1.7 mM EDTA, 0.2% BSA). The substrate, [8-^3H] cyclic guanosine-3′,5′-monophosphate (1 μCi/μl; Perkin Elmer) is diluted 1:2000 with assay buffer (50 mM tris/hydrochloric acid pH 7.5, 8.3 mM magnesium chloride, 1.7 mM EDTA) to a concentration of 0.0005 μCi/μl. By addition of 50 μl (0.025 μCi) of the diluted substrate, the enzyme reaction is finally started. The test mixtures are incubated at room temperature for 60 min and the reaction is stopped by adding 25 μl of a suspension of 18 mg/ml yttrium scintillation proximity beads in water (phosphodiesterase beads for SPA assays, RPNQ 0150, Perkin Elmer). The microtitre plates are sealed with a film and left to stand at room temperature for 60 min. Subsequently, the plates are analysed for 30 s per well in a Microbeta scintillation counter (Perkin Elmer). IC50 values are determined using the graphic plot of the substance concentration against percentage PDE 5 inhibition.

The target of experiment [2] is recombinant guanylate cyclase reporter cell line (Rattus norvegicus (Rat), UniProt P19686+P20595). Briefly: Effect on a recombinant guanylate cyclase reporter cell line. It counts as cell-based. Conditions: in some cases means of individual determinations. As for the experimental part: B-2. Effect on a Recombinant Guanylate Cyclase Reporter Cell Line
Sequence of recombinant guanylate cyclase reporter cell line (P19686 whole entry): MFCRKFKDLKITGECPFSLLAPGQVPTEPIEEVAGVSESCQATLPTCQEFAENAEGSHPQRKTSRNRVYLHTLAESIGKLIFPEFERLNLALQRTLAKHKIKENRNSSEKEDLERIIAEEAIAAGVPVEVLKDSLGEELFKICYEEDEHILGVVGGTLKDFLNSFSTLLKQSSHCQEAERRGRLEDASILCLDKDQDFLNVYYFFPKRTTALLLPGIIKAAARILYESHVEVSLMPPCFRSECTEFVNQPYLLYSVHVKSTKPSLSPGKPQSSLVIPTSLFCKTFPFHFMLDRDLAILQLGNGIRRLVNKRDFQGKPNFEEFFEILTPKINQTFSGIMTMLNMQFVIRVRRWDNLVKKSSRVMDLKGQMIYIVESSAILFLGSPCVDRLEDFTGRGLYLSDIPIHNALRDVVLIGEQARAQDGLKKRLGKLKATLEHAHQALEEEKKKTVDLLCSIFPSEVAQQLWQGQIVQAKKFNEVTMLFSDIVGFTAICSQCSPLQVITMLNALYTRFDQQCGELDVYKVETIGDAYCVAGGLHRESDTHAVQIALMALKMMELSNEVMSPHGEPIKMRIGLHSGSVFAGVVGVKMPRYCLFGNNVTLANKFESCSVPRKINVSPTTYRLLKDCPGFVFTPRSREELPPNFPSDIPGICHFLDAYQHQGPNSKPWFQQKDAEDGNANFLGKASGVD
Sequence of recombinant guanylate cyclase reporter cell line (P20595 whole entry): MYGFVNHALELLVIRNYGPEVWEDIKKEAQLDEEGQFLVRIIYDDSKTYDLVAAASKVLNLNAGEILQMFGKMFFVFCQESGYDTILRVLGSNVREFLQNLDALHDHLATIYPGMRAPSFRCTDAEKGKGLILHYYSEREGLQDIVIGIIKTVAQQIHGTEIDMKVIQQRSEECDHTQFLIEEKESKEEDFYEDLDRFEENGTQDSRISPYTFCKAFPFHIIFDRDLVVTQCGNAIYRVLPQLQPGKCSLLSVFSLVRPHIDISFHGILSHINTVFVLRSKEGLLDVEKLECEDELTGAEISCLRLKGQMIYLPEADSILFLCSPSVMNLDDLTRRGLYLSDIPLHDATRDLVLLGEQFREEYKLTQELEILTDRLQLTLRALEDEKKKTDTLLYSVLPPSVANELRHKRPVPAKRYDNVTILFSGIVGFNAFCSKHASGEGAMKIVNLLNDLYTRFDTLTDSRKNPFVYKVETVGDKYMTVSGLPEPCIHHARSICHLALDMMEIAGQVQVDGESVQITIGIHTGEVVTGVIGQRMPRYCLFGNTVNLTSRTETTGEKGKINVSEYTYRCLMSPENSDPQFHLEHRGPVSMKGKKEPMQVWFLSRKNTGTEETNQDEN
The cellular activity of the compounds according to the invention is determined using a recombinant guanylate cyclase reporter cell line, as described in F. Wunder et al., Anal. Biochem. 339, 104-112 (2005).
Representative values (MEC=minimum effective concentration) for the compounds according to the invention are shown in the table below (Table 1; in some cases as means of individual determinations): […]

Consider `Cc1ccc2c(-c3nnc4c(n3)NC(=O)C43CC3)nn(Cc3ccc(C)c(F)c3F)c2n1` [Example 26, 3′-[1-(2,3-Difluoro-4-methylbenzyl)-6-methyl-1H-pyrazolo[3,4-b]pyridin-3-yl]spiro[cyclopropane-1,7′-pyrrolo[2,3-e][1,2,4]triazin]-6′(5′H)-one], for which the IC50 in experiment [1] came out at 4 nM. Further, in experiment [2], the “MEC (minimum effective concentration)” value came to 300 nM.
